Reference: PubChem BioAssay AID624001 (Vanderbilt Specialized Chemistry Center, 2012)

Target: Phospholipase D1 (Homo sapiens) + Phospholipase D1 (Homo sapiens) (UniProt Q13393+Q13393)
Assay: phospholipase D1 inhibition, isolated enzyme – biochemical, Lib32, assay 3A, dose response (AID 624001)
Settings: purified PLD1 enzyme activity assay

Sequence of Phospholipase D1 (Homo sapiens) + Phospholipase D1 (Homo sapiens) (Q13393 whole entry, looked up): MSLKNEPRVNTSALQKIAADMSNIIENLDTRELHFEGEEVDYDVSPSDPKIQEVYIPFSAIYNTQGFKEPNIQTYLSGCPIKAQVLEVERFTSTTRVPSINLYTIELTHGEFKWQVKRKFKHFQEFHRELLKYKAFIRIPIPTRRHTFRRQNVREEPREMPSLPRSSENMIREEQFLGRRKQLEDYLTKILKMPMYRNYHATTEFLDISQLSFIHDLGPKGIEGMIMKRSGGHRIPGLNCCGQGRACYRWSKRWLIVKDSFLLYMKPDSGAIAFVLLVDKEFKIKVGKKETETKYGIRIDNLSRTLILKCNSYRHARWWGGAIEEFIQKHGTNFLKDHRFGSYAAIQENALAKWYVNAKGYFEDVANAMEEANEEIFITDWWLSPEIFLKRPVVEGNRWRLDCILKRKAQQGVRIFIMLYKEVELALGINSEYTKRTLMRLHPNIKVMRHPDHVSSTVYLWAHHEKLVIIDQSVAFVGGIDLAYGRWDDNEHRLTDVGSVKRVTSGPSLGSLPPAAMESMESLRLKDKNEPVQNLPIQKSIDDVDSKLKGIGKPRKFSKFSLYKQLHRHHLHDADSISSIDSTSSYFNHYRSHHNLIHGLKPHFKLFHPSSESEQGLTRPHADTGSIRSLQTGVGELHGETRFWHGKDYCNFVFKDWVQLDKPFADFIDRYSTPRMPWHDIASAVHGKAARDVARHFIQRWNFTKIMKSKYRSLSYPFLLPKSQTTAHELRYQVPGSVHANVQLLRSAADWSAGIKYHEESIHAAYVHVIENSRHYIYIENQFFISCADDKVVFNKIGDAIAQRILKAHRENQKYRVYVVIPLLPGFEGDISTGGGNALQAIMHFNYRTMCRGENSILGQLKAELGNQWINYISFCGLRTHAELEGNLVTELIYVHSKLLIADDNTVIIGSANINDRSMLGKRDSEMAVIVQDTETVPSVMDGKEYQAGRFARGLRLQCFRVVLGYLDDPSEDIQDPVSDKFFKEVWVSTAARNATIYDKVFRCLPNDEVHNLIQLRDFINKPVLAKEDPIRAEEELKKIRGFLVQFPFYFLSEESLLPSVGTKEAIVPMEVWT
Sequence of Phospholipase D1 (Homo sapiens) + Phospholipase D1 (Homo sapiens) (Q13393 whole entry, looked up): as above

COc1cc(C(=O)NCCN2CCC3(CC2)C(=O)NCN3c2cccc(F)c2)cc(OC)c1OC
IC50: 20 µM
